The test concerns the target S-adenosylmethionine synthase isoform type-2 (Homo sapiens, UniProt P31153). Description: Allosteric inhibition of MAT2A (unknown origin) expressed in Escherichia coli BL21(DE3) assessed as reduction in S-adenosyl-methionine formation using methionine as substrate in presence of ATP by ELISA. On the technique in general: ELISA stands for enzyme-linked immunosorbent assay.

Drawing on ChEMBL document CHEMBL4715850, “Exploiting binding-site arginines in drug design: Recent examples” (Bioorg Med Chem Lett, 2020), this text covers IC50 for one compound.

Chain of S-adenosylmethionine synthase isoform type-2 (P31153 whole entry, canonical isoform): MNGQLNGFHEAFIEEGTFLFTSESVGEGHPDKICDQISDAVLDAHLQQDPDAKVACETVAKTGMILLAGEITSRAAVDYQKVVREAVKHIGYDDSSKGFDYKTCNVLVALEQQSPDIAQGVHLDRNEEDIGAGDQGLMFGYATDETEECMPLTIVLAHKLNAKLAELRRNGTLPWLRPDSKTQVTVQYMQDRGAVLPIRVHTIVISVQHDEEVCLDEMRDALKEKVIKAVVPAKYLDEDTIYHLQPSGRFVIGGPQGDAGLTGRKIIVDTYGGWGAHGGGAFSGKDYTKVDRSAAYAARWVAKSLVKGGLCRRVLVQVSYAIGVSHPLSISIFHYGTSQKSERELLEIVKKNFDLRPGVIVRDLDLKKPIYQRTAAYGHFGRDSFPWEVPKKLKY

The term IC50 denotes the concentration needed to halve the response being measured. As to `COc1ccc2c(=O)c(C)c(-c3ccnc(-c4ccc(OC(F)(F)F)cc4)c3)[nH]c2c1`, the IC50 came to 283 nM.
